Measured values reported in patent publication US20160271251A1, “RADIOLUMINESCENT COMPOUND FOR RADIOTHERAPY AND DEEP PHOTODYNAMIC THERAPY AND DEVICE FOR DEEP PHOTODYNAMIC THERAPY” (SYNCHROTRON SOLEIL, priority 2013, published 2016).

Experiments:
[1] = X-ray-excited luminescence (radioluminescence) spectrum; type: physicochemical; conditions: for emission band of X-ray-excited luminescence: c=177 mM
From the text: (§1) For the acquisition of these spectra, the two molecules are mixed in the same aqueous solvent. The energy of the X-ray radiation is generally comprised between 1 and 20 keV and selected so as to be higher than an absorption threshold of the radioluminescent molecule, so that the radioluminescent molecule absorbs the X-ray radiation of energy and emits a luminescence radiation in the visible domain.

[2] = UV-visible absorption spectrum of photosensitiser; type: physicochemical
From the text: as §1

Compound: [Cl][Gd]([Cl])[Cl] [GdCl3, gadolinium chloride]
- emission bands/peak of X-ray-excited luminescence ([1]; DMSO medium, EuCl3 c=96 mM, GdCl3 c=199 mM): around 320 nm

Compound: [Cl][Eu]([Cl])[Cl] [EuCl3, europium chloride]
- most intense of the three peaks observed ([1]; DMSO medium (FIG. 7)): 700 nm
- most intense of the three peaks observed ([1]; aqueous medium (FIG. 2)): 600 nm

Compound: Oc1cccc(-c2c3nc(c(-c4cccc(O)c4)c4ccc([nH]4)c(-c4cccc(O)c4)c4nc(c(-c5cccc(O)c5)c5ccc2[nH]5)CC4)C=C3)c1 [mTHPC, meta-tetrahydroxyphenylchlorine]
- most intense absorption band ([2]; PEG:EtOH:H2O 3:2:5 v/v, c=0.49 μM): around 400 nm

Compound: [Cl][Ce]([Cl])[Cl] [CeCl3, cerium chloride]
- emission band of X-ray-excited luminescence ([1]; PBS pH=7.4): 300-400 nm
- emission band of X-ray-excited luminescence ([1]; PEG:EtOH:H2O 3:2:5 v/v, X-ray 1-20 keV): 300-400 nm

Compound: chlorine e6
- most intense absorption band ([2]; PBS pH=7.4, c=0.8 μM): around 400 nm

Compound: [Al].c1ccc2c(c1)-c1nc-2nc2[nH]c(nc3nc(nc4[nH]c(n1)c1ccccc41)-c1ccccc1-3)c1ccccc21 [Al(III)Phthalocyanine]
- absorption band superimposed with CeCl3 emission ([2]; aqueous medium, c=4 μM): around 350 nm
